How the values were obtained:
secreted VEGF = test: VEGF ELISA of A549 culture media; assay type: cell-based, human; conditions: A549 cells, 10 and 100 nM, 16 h
Source text: As HIF-1α regulates transcription of its target genes, which are involved in angiogenesis, glucose metabolism, and metastasis in tumor progression, we determined the effects of Compound 12 on HIF-1 target gene expression at the mRNA level by semiquantitative RT-PCR. […] Thus, we checked secreted VEGF protein levels in culture media via ELISA.
Figure 5 Compound 12 suppressed HIF-1α target gene expression, and confirmation of in vitro results via determination of effects on angiogenesis in vivo (A) A549 cells were treated with Compound 12 (at concentrations of 0 nM, 1 nM, 10 nM, and 100 nM) for 16 h. The mRNA levels of HIF-1α target genes were determined by semiquantitative RT-PCR. β-actin was used as an internal control. D. DMSO vehicle control. N, normoxia; H, hypoxia. […] Media supernatant was collected, and secreted VEGF was determined by ELISA after removal of cellular debris. […] Cells that migrated through the membrane (8 μm pore size) were stained with hematoxylin and eosin, pictured as shown in upper panel, and counted (graph). *P < 0.05, **P < 0.01 versus VEGF-treated control. […] (F) Compound 12 (0.1 μg and 1 μg dosages) and retinoic acid (RA, positive control) were applied to the ED 4.5 CAM for two days, neovessel formation from the large vessels was observed, and percentages of positive angiogenic eggs (from total eggs tested) were calculated. […]

HUVECs [1] = test: Matrigel tube formation assay, VEGF-induced; assay type: cell-based, human; conditions: VEGF 20 ng/mL, 24 h
[2] = test system: angiogenesis (hemoglobin content of Matrigel plug); test: Matrigel plug assay in C57BL/6J mice; assay type: in vivo, mouse; conditions: Compound 12 100 nM, gefitinib 5 μM in Matrigel, 10 days
Procedure: HIF-1α is synthesized by growth factor signaling pathways, such as those of EGFR [30] [31]. Inhibition of HIF-1α in its pathways of synthesis, as well as in its pathway of degradation, would seem to make for a more efficient anti-cancer/anti-angiogenesis treatment. To confirm this, we performed a tumor allogaft experiment using Lewis lung carcinoma (LLC) cells. 1 × 10^6 LLC cells were inoculated into the mouse flank subcutaneously (s.c.), and treatment with Compound 12 (5 mg/kg) and/or gefitinib (an EGFR inhibitor, 50 mg/kg), via intraperitoneal (i.p.) administration, was performed every other day for 20 days. […] To confirm the effect of Compound 12 on angiogenesis, we analyzed angiogenesis using the Matrigel plug assay. […]
Figure 6 Compound 12 suppressed allogaft tumor growth and enhanced the effects of a chemotherapeutic agent (A, B) Lewis lung carcinoma cells were inoculated into flanks of C57BL/6J mice (Day 0). […] Tumor size (A) and tumor weight (B) were measured three times a week and on the final day, respectively. […] The content of hemoglobin was quantified and graphed. (D) Tumor tissue sections (10 μm) indicated were stained with H&E and immunostained with anti-CD31 antibody to detect microvessel density; CD31+ cell percentages were then calculated and graphed. […] (F) Images and quantitative comparisons (graph) for Ki67+ proliferating cells in tumor center regions are shown. […]

HUVECs [3] = test: BrdU cell proliferation assay, VEGF-induced; assay type: cell-based, human; conditions: VEGF 20 ng/mL
Procedure: Figure 5 Compound 12 suppressed HIF-1α target gene expression, and confirmation of in vitro results via determination of effects on angiogenesis in vivo (A) A549 cells were treated with Compound 12 (at concentrations of 0 nM, 1 nM, 10 nM, and 100 nM) for 16 h. The mRNA levels of HIF-1α target genes were determined by semiquantitative RT-PCR. β-actin was used as an internal control. D. DMSO vehicle control. N, normoxia; H, hypoxia. (B) A549 cells were treated with serum-reduced culture media containing Compound 12 (at concentrations of 0 nM, 10 nM, and 100 nM) for 16 h. Media supernatant was collected, and secreted VEGF was determined by ELISA after removal of cellular debris. N, normoxia; H, hypoxia. **P < 0.01 versus hypoxia (H) DMSO (D)-treated control. (C) HUVECs were treated with Compound 12, at the indicated concentrations, in the presence of VEGF (20 ng/mL) for 24 h in 1% serum-containing media. […] Cells that migrated through the membrane (8 μm pore size) were stained with hematoxylin and eosin, pictured as shown in upper panel, and counted (graph). *P < 0.05, **P < 0.01 versus VEGF-treated control. […] (F) Compound 12 (0.1 μg and 1 μg dosages) and retinoic acid (RA, positive control) were applied to the ED 4.5 CAM for two days, neovessel formation from the large vessels was observed, and percentages of positive angiogenic eggs (from total eggs tested) were calculated. […]

COc1ccc(-c2cn(CC3(C)C=Cc4cc([N+](=O)[O-])ccc4O3)nn2)cc1 (stereo not shown) [Compound 12, 4-(4-methoxyphenyl)-1-((2-methyl-6-nitro-2H-chromen-2-yl)methyl)-1H-1,2,3-triazole]
hypoxia-induced VEGF secretion (secreted VEGF): significantly suppressed hypoxia-induced VEGF secretion, in a dose-dependent manner | VEGF-induced tube formation (HUVECs [1]): significantly inhibited | anti-angiogenic activity, Matrigel plug (hemoglobin content) [2]: anti-angiogenic activity was increased | VEGF-induced endothelial cell proliferation (BrdU) (HUVECs [3]): significantly inhibited VEGF-induced proliferation
